Assay results: PubChem BioAssay (NCI)
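Where inhibition never reached the appropriate level, the endpoint shown equals the highest concentration tested. Otherwise, values were interpolated linearly from a five-concentration, 48-hour dose response in 96-well plates. At the TGI there is no net growth.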

What was measured:
Assay in all cases: NCI tumour cell line growth inhibition, 48 h
[1] = tested on: XF 498 CNS
[2] = tested on: TK-10 renal
[3] = tested on: KM20L2 colon
[4] = tested on: NCI-H460 lung
[5] = tested on: OVCAR-8 ovarian
[6] = tested on: SK-MEL-5 melanoma
[7] = tested on: SF-268 CNS
[8] = tested on: EKVX NSCLC
[9] = tested on: HCT-116 colon
[10] = tested on: HT29 colon
[11] = tested on: HOP-92 NSCLC
[12] = tested on: SK-MEL-28 melanoma
[13] = tested on: RPMI-8226 leukemia
[14] = tested on: KM12 colon
[15] = tested on: HCT-15 colon
[16] = tested on: SNB-75 CNS
[17] = tested on: ACHN renal
[18] = tested on: DMS 114 small cell lung
[19] = tested on: SNB-19 CNS
[20] = tested on: NCI-H226 lung
[21] = tested on: NCI-H522 lung
[22] = tested on: M14 melanoma
[23] = tested on: K-562 leukemia
[24] = tested on: SN12C renal
[25] = tested on: UACC-257 melanoma
[26] = tested on: LOX IMVI melanoma
[27] = tested on: CCRF-CEM leukemia
[28] = tested on: HOP-62 NSCLC
[29] = tested on: HL-60(TB) leukemia
[30] = tested on: SK-OV-3 ovarian
[31] = tested on: OVCAR-3 ovarian
[32] = tested on: HCC-2998 colon
[33] = tested on: OVCAR-4 ovarian
[34] = tested on: UO-31 renal
[35] = tested on: RXF-631 renal
[36] = tested on: SNB-78 CNS
[37] = tested on: SF-539 CNS
[38] = tested on: SW-620 colon
[39] = tested on: MALME-3M melanoma
[40] = tested on: DMS 273 small cell lung
[41] = tested on: SF-295 CNS
[42] = tested on: A549 NSCLC
[43] = tested on: UACC-62 melanoma
[44] = tested on: HOP-18 NSCLC
[45] = tested on: IGROV1 ovarian
[46] = tested on: MOLT-4 leukemia
[47] = tested on: U251 CNS
[48] = tested on: CAKI-1 renal
[49] = tested on: 786-0 renal
[50] = tested on: LXFL 529 NSCLC
[51] = tested on: M19-MEL melanoma
[52] = tested on: A498 renal
[53] = tested on: COLO 205 colon
[54] = tested on: OVCAR-5 ovarian
[55] = tested on: NCI-H23 lung
[56] = tested on: RXF 393 renal
[57] = tested on: SK-MEL-2 melanoma
[58] = tested on: MDA-MB-435
[59] = tested on: MDA-MB-231 breast
[60] = tested on: MDA-N
[61] = tested on: T-47D breast
[62] = tested on: DLD-1 colon
[63] = tested on: SR leukemia
[64] = tested on: HS 578T breast
[65] = tested on: BT-549 breast
[66] = tested on: DU-145 prostate
[67] = tested on: PC-3 prostate
[68] = tested on: MCF7 breast

## CC(=O)Nc1ccccc1Sc1ccccc1
[1]
  TGI: > 100 µM
[2]
  TGI: > 100 µM
[3]
  TGI: > 100 µM
[4]
  TGI: > 100 µM
[5]
  TGI: > 100 µM
[6]
  TGI: > 100 µM
[7]
  TGI: > 100 µM
[8]
  TGI: > 100 µM
[9]
  TGI: > 100 µM
[10]
  TGI: > 100 µM
[11]
  TGI: > 100 µM
[12]
  TGI: > 100 µM
[13]
  TGI: > 100 µM
[14]
  TGI: > 100 µM
[15]
  TGI: > 100 µM
[16]
  TGI: > 100 µM
[17]
  TGI: > 100 µM
[18]
  TGI: > 100 µM
[19]
  TGI: > 100 µM
[20]
  TGI: > 100 µM
[21]
  TGI: > 100 µM
[22]
  TGI: > 100 µM
[23]
  TGI: > 100 µM
[24]
  TGI: > 100 µM
[25]
  TGI: > 100 µM
[26]
  TGI: > 100 µM
[27]
  TGI: > 100 µM
[28]
  TGI: > 100 µM
[29]
  TGI: > 100 µM
[30]
  TGI: > 100 µM
[31]
  TGI: > 100 µM
[32]
  TGI: > 100 µM
[33]
  TGI: > 100 µM
[34]
  TGI: > 100 µM
[35]
  TGI: > 100 µM
[36]
  TGI: > 100 µM
[37]
  TGI: > 100 µM
[38]
  TGI: > 100 µM
[39]
  TGI: > 100 µM
[40]
  TGI: > 100 µM
[41]
  TGI: > 100 µM
[42]
  TGI: > 100 µM
[43]
  TGI: > 100 µM
[44]
  TGI: > 100 µM
[45]
  TGI: > 100 µM
[46]
  TGI: > 100 µM
[47]
  TGI: > 100 µM
[48]
  TGI: > 100 µM
[49]
  TGI: > 100 µM
[50]
  TGI: > 100 µM
[51]
  TGI: > 100 µM
[52]
  TGI: > 100 µM
[53]
  TGI: > 100 µM
[54]
  TGI: > 100 µM
[55]
  TGI: > 100 µM
[56]
  TGI: > 100 µM
[57]
  TGI: > 100 µM

## CN(C)CCC(=O)N1C/C(=C/c2ccccc2)C(=O)/C(=C\c2ccccc2)C1
[1]
  TGI: 6.69 µM
[2]
  TGI: 17.9 µM
[3]
  TGI: 2.89 µM
[4]
  TGI: 6.47 µM
[5]
  TGI: 7.58 µM
[6]
  TGI: 3.9 µM
[7]
  TGI: 9.22 µM
[8]
  TGI: 12.6 µM
[9]
  TGI: 1.15 µM
[10]
  TGI: 2.69 µM
[11]
  TGI: 16.6 µM
[12]
  TGI: 5.18 µM
[13]
  TGI: 0.717 µM
[14]
  TGI: 1.73 µM
[58]
  TGI: 3.85 µM
[59]
  TGI: 2.6 µM
[15]
  TGI: 3.91 µM
[16]
  TGI: 15.1 µM
[17]
  TGI: 5.5 µM
[18]
  TGI: 4.1 µM
[19]
  TGI: 7.62 µM
[20]
  TGI: 12.6 µM
[21]
  TGI: 0.977 µM
[22]
  TGI: 6.53 µM
[23]
  TGI: 0.973 µM
[24]
  TGI: 3.84 µM
[25]
  TGI: 4.61 µM
[26]
  TGI: 1.27 µM
[27]
  TGI: 0.874 µM
[60]
  TGI: 3.71 µM
[61]
  TGI: 17.7 µM
[62]
  TGI: 3.25 µM
[63]
  TGI: 8.63 µM
[28]
  TGI: 16 µM
[29]
  TGI: 1.81 µM
[30]
  TGI: 15.2 µM
[31]
  TGI: 7.05 µM
[32]
  TGI: 2.45 µM
[64]
  TGI: 20.3 µM
[33]
  TGI: 7.98 µM
[34]
  TGI: 5.21 µM
[35]
  TGI: 10.6 µM
[36]
  TGI: 16.1 µM
[37]
  TGI: 11.9 µM
[38]
  TGI: 1.22 µM
[39]
  TGI: 5.9 µM
[40]
  TGI: 3.26 µM
[41]
  TGI: 8.55 µM
[42]
  TGI: 13.5 µM
[43]
  TGI: 3.77 µM
[44]
  TGI: 10.9 µM
[45]
  TGI: 7.02 µM
[65]
  TGI: 2.81 µM
[46]
  TGI: 1.46 µM
[47]
  TGI: 2 µM
[48]
  TGI: 7.02 µM
[66]
  TGI: 18.5 µM
[49]
  TGI: 3.62 µM
[50]
  TGI: 5.51 µM
[51]
  TGI: 2.83 µM
[52]
  TGI: 6.75 µM
[67]
  TGI: 4.2 µM
[53]
  TGI: 5.77 µM
[54]
  TGI: 6.66 µM
[55]
  TGI: 6.76 µM
[68]
  TGI: 2.19 µM
[56]
  TGI: 4.94 µM
[57]
  TGI: 8.74 µM
